Results as given in patent US6361815B1, “Products comprising trihydroxystilbenes and derivatives thereof and methods for their manufacture and use” (Pure World Botanicals, Inc., priority 1998, dated 2002).
Structures can show the parent of a compound that is named as a salt.

Assays:
MCF-7 = assay: MTT assay, 6-cell line test, breast MCF-7; format: cell-based, human; conditions: MCF-7 cells
Description: (§1) Cells were planted in 96 well flat bottom plates with low evaporation lids. Three cell lines per plate were seeded in 0.2 ml medium per well. Each cell line was planted at the optimum concentration for its particular growth rate: H-29 and A-549, 5000 c/ml, MCF-7, 15000 c/well, KB and similar cells, 2500 c/ml, P388 and similar cells, 15000 c/ml. Products were tested at various dilutions (at least ten) to determine the ED 50.

HT-29 = assay: MTT assay, 6-cell line test, colon HT-29; format: cell-based, human; conditions: HT-29 cells
Description: as §1

PC-3 = assay: MTT assay, 6-cell line test, prostate PC-3; format: cell-based, human; conditions: PC-3 cells
Description: as §1

PACA-2 = assay: MTT assay, 6-cell line test, pancreatic PACA-2; format: cell-based, human; conditions: PACA-2 cells
Description: as §1

A-549 = assay: MTT assay, 6-cell line test, lung A-549; format: cell-based, human; conditions: A-549 cells
Description: as §1

A-478 = assay: MTT assay, 6-cell line test, kidney A-478; format: cell-based, human; conditions: A-478 cells
Description: as §1

[1] = tested on: DMBA-induced mammary tumors; assay: DMBA-induced mammary carcinogenesis in rats; format: in vivo, Female Sprague-Dawley rats; conditions: for Rat with Tumors, percentage in parentheses (reduction versus Control Diet + DMBA, not explained) / Tumors Per Rat, percentage in parentheses (reduction versus Control Diet + DMBA, not explained): Sulforaphane 50 mg/kg by gavage + DMBA; for Rat with Tumors (%) / Tumors Per Rat: Sulforaphane 50 mg/kg by gavage once a day, days 46-51 of age, + DMBA
Description: Sulforaphane was orally administered by gavage (50 mg / kg body weight in 0.1 ml corn oil) to rats once a day at 46th, 47th, 48th, 49th, 50th and 51st days of their age. […] Palpable mammary tumors were counted every week after DMBA administration.

[2] = tested on: carrageenan-induced pedal edema; conditions: rats, cited from earlier work

Row | Structure (SMILES) | Breast MCF-7 ED 50 (MCF-7) | Colon HT-29 ED 50 (HT-29) | Prostrate PC-3 ED 50 (PC-3) | Pancreatic PACA-2 ED 50 (PACA-2) | Lung A-549 ED 50 (A-549) | Kidney A-478 ED 50 (A-478) | further results
1 | OC[C@H]1O[C@@H](Oc2cc(O)cc(/C=C/c3ccc(O)cc3)c2)[C@H](O)[C@@H](O)[C@@H]1O (relative stereo) [Fifth Product, 90% Piceid, 3,4′5-trans-trihydroxystilbene-3-β-mono-D-glucoside] | 100 µg/mL | 79.20 µg/mL | 80.58 µg/mL | 40.98 µg/mL | 35.77 µg/mL | 34.95 µg/mL | 
2 | Oc1ccc(/C=C/c2cc(O)cc(O)c2)cc1 [3,4′,5-trihydroxy-trans-stilbene] | 4.23 µg/mL | 1.66 µg/mL | 100 µg/mL | 3.55 µg/mL | 0.326 µg/mL | 0.74 µg/mL | 
3 | COc1cccc2c1C(=O)c1c(O)c3c(c(O)c1C2=O)C[C@@](O)(C(=O)CO)C[C@@H]3O[C@H]1C[C@H](N)[C@H](O)[C@H](C)O1 [Doxorubicin HCL] | 0.107 µg/mL | 0.022 µg/mL | 0.0281 µg/mL | 0.00522 µg/mL | 0.00316 µg/mL | 0.00359 µg/mL | 
4 | C[S+]([O-])CCCCN=C=S (stereo not drawn) [Sulforaphane] |  |  |  |  |  |  | Rat with Tumors, percentage in parentheses (reduction versus Control Diet + DMBA, not explained) ([1]; 9 weeks after DMBA): (100%); Tumors Per Rat, percentage in parentheses (reduction versus Control Diet + DMBA, not explained) ([1]; 9 weeks after DMBA): (100%); Rat with Tumors (%) ([1]; 9 weeks after DMBA): 0%; Tumors Per Rat ([1]; 9 weeks after DMBA): 0; Rat with Tumors, percentage in parentheses (reduction versus Control Diet + DMBA, not explained) ([1]; 14 weeks after DMBA): (32%); Tumors Per Rat, percentage in parentheses (reduction versus Control Diet + DMBA, not explained) ([1]; 14 weeks after DMBA): (43%); Rat with Tumors (%) ([1]; 14 weeks after DMBA): 13%; Tumors Per Rat ([1]; 14 weeks after DMBA): 0.13 ± 0.08; Rat with Tumors, percentage in parentheses (reduction versus Control Diet + DMBA, not explained) ([1]; 22 weeks after DMBA): (38%); Tumors Per Rat, percentage in parentheses (reduction versus Control Diet + DMBA, not explained) ([1]; 22 weeks after DMBA): (10%); Rat with Tumors (%) ([1]; 22 weeks after DMBA): 31%; Tumors Per Rat ([1]; 22 weeks after DMBA): 0.36 ± 0.33
5 | Oc1ccc(C=Cc2cc(O)cc(O)c2)cc1 [resveratrol, 3,4′,5-trihydroxystilbene] |  |  |  |  |  |  | Pedal edema, acute phase ([2]; acute phase (3 to 24 hours)): significantly reduced pedal edema; Pedal edema, chronic phase ([2]; chronic phase (24 to 144 hours)): significantly reduced pedal edema; Edema-suppressing activity compared with reference drugs ([2]; versus phenylbutazone and indomethacin): greater than that of phenylbutazone and similar to that of indomethacin
